Patent EP0869800B1, “ACYLGLYCINE- AND ZINC SALT-BASED ANTIBACTERIAL COMPOUND” (PIERRE FABRE DERMO-COSMETIQUE, priority 1995, dated 1997)

Experiments:
[1] = system: Staphylococcus aureus 6538 P; test: Minimal inhibitory concentration (CMI), serial half dilutions in broth on microplate; assay type: cell-based; conditions: product alone; 24 h at 32°C; 10^6 germes par ml
Description: • . souche: Staphylococcus aureus 6538 P • milieu de culture : • . bouillon et gélose trypticase soja (Biomérieux) • . bouillon Trypticase soja + 10% Tween 80. • appareillage : • . microplaques stériles Nunc R Nunclon à 96 puits • . eau distillée stérile • . tubes à essais stériles • . étuve à 32°C (Jouan) • . spectrophotomètre PRIM et cuves adaptées • . billes de verres stériles • produits : Les solutions-mères des produits cités ci-dessous ont été préparés comme suit : • . Zn SO 4: solution aqueuse à 5% • . n-octanoyl-glycine : solution à 1% dans 30% butylène glycol puis chauffage jusqu'à dissolution homogène. • méthodes : • CMI : Concentration Minimale Inhibitrice Une distribution de 100 µl de bouillon Trypticase soja est réalisée dans chaque cupule de la microplaque stérile A. Une distribution de 100 µl des différents produits a lieu dans une cupule (on est alors à 50% d'actif) (une cupule par produit). Une série de dilutions sériées au demi est ensuite réalisée sur microplaque. Un témoin stérilité du milieu et un autre témoin de la vigueur de la souche sont réalisés en parallèle sur la microplaque. […]

[2] = system: Staphylococcus aureus 6538 P; test: Study of the association by the checkerboard method on microplate (CMI in association, FiC, FiC Index); assay type: cell-based; conditions: for FiC: CMI of the product in association / CMI of the product alone
Description: • . souche: Staphylococcus aureus 6538 P • milieu de culture : • . bouillon et gélose trypticase soja (Biomérieux) • . bouillon Trypticase soja + 10% Tween 80. • appareillage : • . microplaques stériles Nunc R Nunclon à 96 puits • . eau distillée stérile • . tubes à essais stériles • . étuve à 32°C (Jouan) • . spectrophotomètre PRIM et cuves adaptées • . billes de verres stériles • produits : Les solutions-mères des produits cités ci-dessous ont été préparés comme suit : • . Zn SO 4: solution aqueuse à 5% • . n-octanoyl-glycine : solution à 1% dans 30% butylène glycol puis chauffage jusqu'à dissolution homogène. • méthodes : • CMI : Concentration Minimale Inhibitrice Une distribution de 100 µl de bouillon Trypticase soja est réalisée dans chaque cupule de la microplaque stérile A. Une distribution de 100 µl des différents produits a lieu dans une cupule (on est alors à 50% d'actif) (une cupule par produit). Une série de dilutions sériées au demi est ensuite réalisée sur microplaque. Un témoin stérilité du milieu et un autre témoin de la vigueur de la souche sont réalisés en parallèle sur la microplaque. L'ensemencement de la microplaque (A) a lieu sous la hotte après préparation de l'inoculum bactérien comme suit : Les souches ayant été préalablement repiquées la veille sur gélose Trypticase soja, un inoculum 10^8 germes/ml est dispersé dans l'eau distillée stérile puis agité au vortex. Les billes de verre assurant une bonne dispersion des souches, la mesure de la densité optique permet de préparer un inoculum adéquat par rapport à un étalonnage pré-établi et validé. La répartition de la souche a lieu dans une deuxième microplaque (B) stérile par distribution de 100 µl d'inoculum par microcupule. L'ensemencement a lieu par un repiquage de la microplaque (B) vers la microplaque (A), il se réalise ainsi une dilution au 1/100 de l'inoculum : la microplaque A contenant alors 10^6 germes par ml, peut être mise à l'étuve 24 h à 32°C. […]

Row | SMILES | CMI Seuls [1] | FiC [2] | CMI Associés ([2]; product in association (checkerboard), incubation at 32°C)
1 | O=S(=O)([O-])[O-].[Zn+2] [Zn SO 4, sulfate de zinc] | 0,15 | 0,20 | 0,03
2 | CCCCCCCC(=O)NCC(=O)O [n octanoyl glycine, n-octanoyl-glycine] | 0,25 | 0,5 | 
